In article PMC5685509 (Journal of agricultural and food chemistry, 2017):
Where a name gives a salt, the structure may show the parent alone.

How the values were obtained:
quinone reductase = assay: in vitro quinone reductase; assay type: cell-based, murine; settings: for CI, chemoprevention index (= IC50/CD): Hepa1c1c7 cells
Hepa1c1c7 cells = assay: cytotoxicity in Hepa1c1c7 cells; assay type: cell-based, murine; settings: Mus musculus, Hepa-1c1c7, read-out: quinone reductase (QR) induction IC50
[1] = in vitro hydroxyl radical-scavenging activity bioassay; assay type: biochemical

| SMILES | quinone reductase-inducing activity (in words) (quinone reductase) | CI, chemoprevention index (= IC50/CD) (quinone reductase) | IC50 (Hepa1c1c7 cells) [µM] | hydroxyl radical-scavenging activity (in words) [1] |
| --- | --- | --- | --- | --- |
| O=c1c(O[C@@H]2O[C@H](CO)[C@H](O)[C@H](O)[C@H]2O)c(-c2ccc(O)c(O)c2)oc2cc(O)cc(O)c12 [Compound 7, hyperoside] | exhibited quinone reductase-inducing activity | >5.2 | > 100 | – |
| O=c1c(O[C@@H]2O[C@@H](CO)[C@H](O)[C@H]2O)c(-c2ccc(O)c(O)c2)oc2cc(O)cc(O)c12 [Compound 8, quercetin 3-O-α-L-arabinofuranoside] | – | – | > 100 | – |
| O=c1c(O[C@@H]2OC[C@@H](O)[C@H](O)[C@H]2O)c(-c2ccc(O)c(O)c2)oc2cc(O)cc(O)c12 [Compound 9, quercetin 3-O-β-D-xylopyranoside] | – | – | > 100 | – |
| O=C(O)c1cc(O)c(O)c(O)c1 [Compound 10, gallic acid] | – | – | 55.3 ± 7.8 | – |
| COC(=O)c1cc(O)c(O)c(O)c1 [Compound 11, gallic acid methyl ester] | exhibited quinone reductase-inducing activity | 5.8 ± 0.82 | 82.4 ± 11.9 | – |
| O=C(O)c1ccc(O)c(O)c1 [Compound 12, protocatechuic acid] | exhibited quinone reductase-inducing activity | >24.4 | > 100 | – |
| O=Cc1ccc(CO)o1 [Compound 14, hydroxymethylfurfural] | exhibited quinone reductase-inducing activity | – | – | – |
| CC(=O)OCc1ccc(C=O)o1 [Compound 15, acetyloxymethylfurfural] | showed activity in neither of these two assays | – | – | showed activity in neither of these two assays |
| COC(=O)CC(O)(CC(=O)OC)C(=O)O [Compound 16, 1,5-dimethyl citrate] | showed activity in neither of these two assays | – | – | showed activity in neither of these two assays |
| C[S@@+]([O-])CCCCN=C=S [L-sulforaphane, reference compound] | – | 21.7 ± 2.8 | 16.7 ± 1.9 | – |
